This is an account of results in patent publication US4080442A, “Disaccharide derivatives used in the treatment of hepatic diseases” (Meito Sangyo Kabushiki Kaisha, priority 1975, dated 1978).

The structures appear in SMILES notation.

The test system of this experiment is experimental hepatitis induced by D-galactosamin. The experiment is described as follows: Conjoint use of glutathione in experimental hepatitis induced by D-galactosamin. The format is in vivo, female Wistar rats. To be noted: GSH 5 mg/rat, GSSH 5 mg/rat, AS 75 mg/rat, mixtures: GSH or GSSH 5 mg/rat + AS 75 mg/rat, average value ± S.E. As to the method:
Groups each of 10 female Wistar rats of 100 - 120 gram body weight put on a fast of 2 hours prior to the experiment were used. […] One hour after these administrations, all of the groups were administered with D-galactosamin. The administration of the D-galactosamin was performed in the following manner. […] After completion of this administration, the fasted state was continued. Twenty-two hours after the administration of the D-galactosaminhydrochloride, blood was taken from the abdominal aorta and measured for the GOT, GPT, bilirubin and blood glucose contained in the blood plasma. The GOT and GPT were measured by the Reitman-Frankel Method, the bilirubin by the Evelyn-Malloy Method and the blood glucose by the […].
The effects obtained by using injection mixtures of either a reduced type glutathione or an oxidized type glutathione and a sucrose derivative obtained by the method of preparing a pharmaceutical composition of the hereinafter-given Example 11 in treating animals suffering from hepatitis induced by D-galactosamin were tested by operating as in I., above.

Turning to `N[C@@H](CCC(=O)N[C@@H](CS)C(=O)NCC(=O)O)C(=O)O` [GSH, Reduced type glutathione], for the setting “control 1830±432”, the GPT is recorded as 1660±472 Karman U. Besides, the GOT (control 2748±490) amounted to 2510±510 Karmen U.
